From ChEMBL document CHEMBL1152116, “Novel benzimidazole-4-carboxylic acid derivatives as potent and selective 5-HT3 receptor ligands” (Bioorg Med Chem Lett, 1996) come the findings set out here.

In experiment [1] the target is T1, Serotonin 3 (5-HT3) receptor (Rattus norvegicus, UniProt P35563+Q9JJ16).
T1 sequence (P35563 whole entry): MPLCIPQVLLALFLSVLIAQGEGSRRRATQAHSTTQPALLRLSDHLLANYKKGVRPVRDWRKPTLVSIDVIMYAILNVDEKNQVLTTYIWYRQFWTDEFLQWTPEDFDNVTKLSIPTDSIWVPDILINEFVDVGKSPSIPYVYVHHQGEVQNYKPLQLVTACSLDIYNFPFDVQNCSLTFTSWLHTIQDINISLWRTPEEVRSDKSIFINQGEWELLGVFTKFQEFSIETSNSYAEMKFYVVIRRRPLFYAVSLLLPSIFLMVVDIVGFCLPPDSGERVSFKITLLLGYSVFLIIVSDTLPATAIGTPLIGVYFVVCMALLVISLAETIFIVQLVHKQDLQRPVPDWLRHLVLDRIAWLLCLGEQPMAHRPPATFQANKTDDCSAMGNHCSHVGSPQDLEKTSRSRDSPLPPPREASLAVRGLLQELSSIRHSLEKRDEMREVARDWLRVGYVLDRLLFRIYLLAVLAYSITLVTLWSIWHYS
T1 sequence (Q9JJ16 whole entry): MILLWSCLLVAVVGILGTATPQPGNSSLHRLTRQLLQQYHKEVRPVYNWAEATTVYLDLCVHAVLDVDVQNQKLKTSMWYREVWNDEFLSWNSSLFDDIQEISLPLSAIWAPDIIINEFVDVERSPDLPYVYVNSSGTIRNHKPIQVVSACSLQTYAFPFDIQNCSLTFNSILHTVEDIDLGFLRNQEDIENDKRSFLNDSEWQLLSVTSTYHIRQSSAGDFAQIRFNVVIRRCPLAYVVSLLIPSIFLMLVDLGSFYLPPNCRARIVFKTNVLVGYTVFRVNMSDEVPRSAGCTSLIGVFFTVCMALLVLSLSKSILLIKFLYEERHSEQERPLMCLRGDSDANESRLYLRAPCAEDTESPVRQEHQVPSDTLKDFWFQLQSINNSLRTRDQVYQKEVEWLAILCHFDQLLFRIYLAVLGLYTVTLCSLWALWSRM
Briefly: In vitro displacement of [3H]-LY 278584 from rat cerebral cortex 5-hydroxytryptamine 3 receptor. Type of experiment: tissue-based.

The target in experiment [2] is 5-hydroxytryptamine receptor 4 (Rattus norvegicus, UniProt Q62758). Briefly: Displacement of [3H]GR-113808 from rat striatum 5-hydroxytryptamine 4 receptor.
Chain of 5-hydroxytryptamine receptor 4 (Q62758 whole entry): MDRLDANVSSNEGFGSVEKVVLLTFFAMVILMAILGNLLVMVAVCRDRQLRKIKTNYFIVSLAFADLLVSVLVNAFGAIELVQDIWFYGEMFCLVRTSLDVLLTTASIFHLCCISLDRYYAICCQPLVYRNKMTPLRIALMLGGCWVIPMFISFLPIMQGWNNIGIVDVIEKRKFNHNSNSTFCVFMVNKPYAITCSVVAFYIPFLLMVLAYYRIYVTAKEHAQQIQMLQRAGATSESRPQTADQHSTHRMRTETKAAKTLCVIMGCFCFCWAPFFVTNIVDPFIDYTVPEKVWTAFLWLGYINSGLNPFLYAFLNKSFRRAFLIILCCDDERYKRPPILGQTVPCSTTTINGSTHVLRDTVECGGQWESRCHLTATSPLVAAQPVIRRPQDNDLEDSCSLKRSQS

pKi: −log10 of the molar value. Bounds are passed on as bounds.

As for `CN1C2CCCC1CC(NC(=O)c1cc(Cl)cc3nc[nH]c13)C2` (stereo not given), the pKi in experiment [1] was 6.81; in experiment [2] it was 6.78.

Take `COc1cc(N)c(Cl)cc1C(=O)NC1CN2CCC1CC2` (stereo not given) [ZACOPRIDE]: the pKi in experiment [2] is 6.80.

Turning to `CN1C2CCCC1CC(OC(=O)c1cc(Cl)cc3[nH]cnc13)C2` (stereo not given), the values for the pKi in experiment [1] and in experiment [2] were 8.31 and under 6.00, respectively.

`CN1[C@@H]2CC[C@H]1C[C@@H](OC(=O)c1c[nH]c3ccccc13)C2` [TROPISETRON]: the negative-log Ki (pKi) in experiment [2] is 7.20.

As to `CN1CCC(NC(=O)c2cc(Cl)cc3[nH]cnc23)CC1`, the pKi in experiment [1] was 7.53; in experiment [2] it was 7.27.

On to `O=C(NC1CN2CCC1CC2)c1cccc2nc[nH]c12` (stereo not given), for which the negative logarithm of the Ki (pKi) in experiment [1] is 8.43; in experiment [2], under 6.00.

Consider `O=C(NC1CN2CCC1CC2)c1cc(Cl)cc2nc[nH]c12` (stereo not given), for which the pKi in experiment [1] was 9.54; in experiment [2], 6.77.

On to `CN1C2CCCC1CC(NC(=O)c1cccc3[nH]cnc13)C2` (stereo not given), for which the results for the pKi in experiment [1] and in experiment [2] were 8.21 and under 6.00, respectively.

On to `CN1CCC(OC(=O)c2cccc3nc[nH]c23)CC1`, for which the results for the negative logarithm of the Ki (pKi) in experiment [1] and in experiment [2] were under 6.00 and under 5.00, respectively.

As to `CN1C2CCCC1CC(OC(=O)c1cccc3nc[nH]c13)C2` (stereo not given), the figures for the negative-log Ki (pKi) in experiment [1] and in experiment [2] were 6.89 and under 5.00, respectively.

With `CN1CCC(NC(=O)c2cccc3[nH]cnc23)CC1`, the pKi in experiment [1] was 6.84; in experiment [2] it was 6.14.
